Assay results as given in PMC4795541, “A Rapid and Quantitative Flow Cytometry Method for the Analysis of Membrane Disruptive Antimicrobial Activity” (PLoS ONE, 2016).
Read-outs that look alike come from different tables or passages of the source. Marks after values point to notes of the source that are not given here. Where no end group is shown, it is not given here.

Experiments:
E. aerogenes ATCC 13048 [1] = tested on: E. aerogenes ATCC 13048
Excerpt: (§1) The bacterial strains; Fusobacterium nucleatum ATCC 25586, Streptococcus mutans Ingbritt, Staphylococcus aureus (MSSA) ATCC 29213; Staphylococcus aureus (MRSA) ATCC 43300; Enterococcus faecalis ATCC 29212; Enterobacter aerogenes ATCC 13048; Pseudomonas aeruginosa strain PAO1-LAC, ATCC 47085; Klebsiella pneumoniae ATCC 13883; Acinetobacter baumannii strain 2208, ATCC 19606; Escherichia coli ATCC 25922 lyophilised or glycerol stocks were obtained from the culture collection of the Oral Health Cooperative Research Centre, The Melbourne Dental School, University of Melbourne, Australia. These strains were selected for this study as they are widely used in antimicrobial studies and are considered to be important pathogens and major targets for antibiotic resistant studies. Bacteria were grown aerobically and maintained by passage at ambient temperature (E. coli, K. pneumoniae, A. baumannii and S. aureus strains) or at 37°C (P. aeruginosa, E. faecalis and E. aerogenes) on horse blood agar (10% v/v defibrinated horse blood, 4.4% w/v Oxoid Blood Agar Base No. 2). S. mutans and F. nucleatum were grown anaerobically (MK3 anaerobic workstation, Don Whitley Scientific Limited, England) and maintained by passage at 37°C on Todd Hewitt agar (3.6% w/v Oxoid Todd-Hewitt Broth, 1.5% w/v sucrose, 1.5% w/v BactoTM Agar, 0.8% w/v Oxoid Yeast Extract) or horse blood agar, respectively. For the antimicrobial peptide assays a 20 mL starter culture was produced by taking single colonies from blood or Todd Hewitt agar plates, respectively, to inoculate either: Luria Broth (LB; 1% w/v BactoTM Tryptone, 1% w/v NaCl, 0.5% w/v Oxoid Yeast Extract, pH 7.5, Thermo Scientific Pty, Ltd, Sydney, Australia) for bacteria; E. coli, K. pneumoniae, P. aeruginosa, A. baumannii, E. faecalis, E. aerogenes and S. aureus which were grown aerobically at 37°C, or Todd Hewitt broth (3.6% w/v Oxoid Todd-Hewitt Broth, 1.5% w/v sucrose, 0.8% w/v Oxoid Yeast 9 Extract) for S. mutans, or Brain Heart Infusion broth (BHI; 3.7% w/v Oxoid BHI, 0.05% w/v L-cysteine) for F. nucleatum which were both grown anaerobically at 37°C. After overnight incubation, 0.5–2.0 mL of the starter culture was used to inoculate the appropriate fresh broth (200 mL) and growth monitored at 650 nm using a spectrophotometer (model 275E; Perkin-Elmer, Sydney, Australia) with culture purity checked by microscopic examination and culture. Bacteria were harvested during late exponential growth phase and viability and bacteria/mL determined using a BacLight viability kit (Invitrogen, Sydney, Australia) and a Quanta SC-MPL flow cytometer (Beckman coulter Pty, Ltd, Sydney, Australia).
(§2) Antibacterial assays were undertaken to determinate the minimum inhibitory concentration (MIC), minimum bactericidal concentration (MBC) and minimum membrane disruptive concentration (MDC) of each of the antimicrobial peptides (AMP) and AMP analogues (S1 Table). For each bacterim a stock solution (2.5 × 10^6 cells/mL) in the respective media was made and an aliquot incubated with AMPs within 15 minutes from viable cell count and stock preparation. All AMPs were dissolved in DMSO and a 500 μM stock solution prepared by adding the respective media and serial dilutions (250–0.244 μM) of the AMP in media (100 μL/well) made just prior addition of bacteria. […] One hundred microliter aliquots of the bacterial stock solution (2.5 × 10^5 cells/well) were added to the AMP serial dilutions and incubated at 37°C for 90 min. Assay preparation and incubations were conducted in aerobic or anaerobic conditions dependent on the bacteria. Bacteria were also incubated in the absence of AMP to serve as a growth control for the assay. After the 90 minute incubation period the antimicrobial activity (MIC, MBC and MDC) was determined as follows;
(§3) For determination of MBC, the CLSI protocol was followed, with the modifications being that due to the rapid action of the AMPs the assay incubation time was shortened from 16–20 hours to 90 minutes.

[2] = tested on: S. aureus (MRSA) ATCC 43300
Excerpt: as §1, §2, §3

E. coli ATCC 25922 [3] = tested on: E. coli ATCC 25922
Excerpt: as §1, §2, §3

E. faecalis ATCC 29212 [4] = tested on: E. faecalis ATCC 29212
Excerpt: as §1, §2, §3

[5] = tested on: P. aeruginosa strain PAO1-LAC, ATCC 47085
Excerpt: as §1, §2, §3

[6] = tested on: S. aureus (MSSA) ATCC 29213
Excerpt: as §1, §2, §3

[7] = tested on: A. baumannii strain 2208, ATCC 19606
Excerpt: as §1, §2, §3

K. pneumoniae ATCC 13883 [8] = tested on: K. pneumoniae ATCC 13883
Excerpt: as §1, §2, §3

E. aerogenes ATCC 13048 [9] = tested on: E. aerogenes ATCC 13048; remark: listed apart in the source
Excerpt: as §1, §2
(§4) For MIC the CLSI broth microdilution assay was followed as we have previously described.

[10] = tested on: S. aureus (MRSA) ATCC 43300; remark: listed apart in the source
Excerpt: as §1, §2, §4

E. coli ATCC 25922 [11] = tested on: E. coli ATCC 25922; remark: listed apart in the source
Excerpt: as §1, §2, §4

E. faecalis ATCC 29212 [12] = tested on: E. faecalis ATCC 29212; remark: listed apart in the source
Excerpt: as §1, §2, §4

[13] = tested on: P. aeruginosa strain PAO1-LAC, ATCC 47085; remark: listed apart in the source
Excerpt: as §1, §2, §4

[14] = tested on: S. aureus (MSSA) ATCC 29213; remark: listed apart in the source
Excerpt: as §1, §2, §4

[15] = tested on: A. baumannii strain 2208, ATCC 19606; remark: listed apart in the source
Excerpt: as §1, §2, §4

K. pneumoniae ATCC 13883 [16] = tested on: K. pneumoniae ATCC 13883; remark: listed apart in the source
Excerpt: as §1, §2, §4

F. nucleatum ATCC 25586 [17] = conditions: ATCC 25586
Excerpt: as §1, §2, §3

S. mutans Ingbritt [18] = conditions: Ingbritt
Excerpt: as §1, §2, §3

F. nucleatum ATCC 25586 [19] = conditions: ATCC 25586, 24 h
Excerpt: as §1, §2, §4

S. mutans Ingbritt [20] = conditions: Ingbritt, 24 h
Excerpt: as §1, §2, §4

[21] = E. aerogenes ATCC 13048, 90 min incubation, average of 3 assays ± SD
[22] = S. aureus (MRSA) ATCC 43300, 90 min incubation, average of 3 assays ± SD
[23] = E. coli ATCC 25922, 90 min incubation, average of 3 assays ± SD
[24] = E. faecalis ATCC 29212, 90 min incubation, average of 3 assays ± SD
[25] = P. aeruginosa PAO1-LAC, ATCC 47085, 90 min incubation, average of 3 assays ± SD
[26] = S. aureus (MSSA) ATCC 29213, 90 min incubation, average of 3 assays ± SD
[27] = A. baumannii strain 2208, ATCC 19606, 90 min incubation, average of 3 assays ± SD
[28] = K. pneumoniae ATCC 13883, 90 min incubation, average of 3 assays ± SD

“GLLSVLGSVAKHVLPHVVPVIAEHL-NH2 [Caerin 1.1]” gave an MBC (E. aerogenes ATCC 13048 [1]; [21]) of 51.1 ± 6.3 µM, an MBC [2, 22] of 13.9 ± 2.4 µM and an MBC (E. coli ATCC 25922 [3]; [23]) of 15.6 ± 0.4 µM. The MBC (E. faecalis ATCC 29212 [4]; [24]) was 17.5 ± 10.6 µM, the MBC [5, 25] was 51.4 ± 27.1 µM and the MBC [6, 26] was 9.9 ± 2.3 µM. The MBC [7, 27] was 3.0 ± 1.0 µM, the MBC (K. pneumoniae ATCC 13883 [8]; [28]) was 20.0 ± 7.1 µM and the MIC (E. aerogenes ATCC 13048 [9]; [21]) was 40.0 ± 8.2 µM. The MIC [10, 22] was 4.9±0.4^e μM, the MIC (E. coli ATCC 25922 [11]; [23]) was 8.45±0.2^e μM and the MIC (E. faecalis ATCC 29212 [12]; [24]) was 27.1 ± 15.0 µM. The MIC [13, 25] was 39.3 ± 21.4 µM, the MIC [14, 26] was 5.5±0.2^e μM and the MIC [15, 27] was 3.1 ± 0.4 µM. The MIC (K. pneumoniae ATCC 13883 [16]; [28]) was 14.6 ± 5.1 µM.

KNLRRIIRKIIHIIKKYG [Ovispirin] showed an MBC (E. aerogenes ATCC 13048 [1]; ATCC 13048) of 135.2 ± 26.3 µM, an MBC ([2]; ATCC 43300) greater than 250 µM and an MBC (E. coli ATCC 25922 [3]; ATCC 25922) of 8.5 ± 0.7 µM. It also gave an MBC (E. faecalis ATCC 29212 [4]; ATCC 29212) of 72.4 ± 13.7 µM, an MBC ([5]; PAO1) of 95.9 ± 9.8 µM and an MBC ([6]; ATCC 29213) of 139.7 ± 25.8 µM. For the same substance, the MBC (F. nucleatum ATCC 25586 [17]) was 4.7 ± 3.5 µM, the MBC ([7]; ATCC 19606) was 2.0 ± 1.0 µM and the MBC (S. mutans Ingbritt [18]) was 11.3 ± 5.3 µM. For the same substance, the MBC (K. pneumoniae ATCC 13883 [8]; ATCC 13883) was 21.7 ± 3.7 µM, the MIC (E. aerogenes ATCC 13048 [9]; ATCC 13048, 24 h) was 45.9±13.8^e μM and the MIC ([10]; ATCC 43300, 24 h) was greater than 250 µM. It also gave an MIC (E. coli ATCC 25922 [11]; ATCC 25922, 24 h) of 9.6 ± 3.9 µM, an MIC (E. faecalis ATCC 29212 [12]; ATCC 29212, 24 h) of 78.8 ± 40.7 µM and an MIC ([13]; PAO1, 24 h) of 90.6 ± 7.5 µM. For the same substance, the MIC ([14]; ATCC 29213, 24 h) was 138.5 ± 24.5 µM, the MIC (F. nucleatum ATCC 25586 [19]) was 4.2 ± 2.9 µM and the MIC ([15]; ATCC 19606, 24 h) was 2.6 ± 1.1 µM. For the same substance, the MIC (S. mutans Ingbritt [20]) was 16.5 ± 1.7 µM and the MIC (K. pneumoniae ATCC 13883 [16]; ATCC 13883, 24 h) was 7.7±0.1^e μM.
